Results taken from PubChem BioAssay (NCI).
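All cell lines were grown in 96-well plates and treated with compound for 48 hours. At the GI50, growth is halved. TGI: total growth inhibition.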

Tests used:
Assay in all cases: NCI tumour cell line growth inhibition, 48 h
786-0 renal = system: 786-0 renal
A549 NSCLC = system: A549 NSCLC
ACHN renal = system: ACHN renal
COLO 205 colon = system: COLO 205 colon
HCT-116 colon = system: HCT-116 colon
HCT-15 colon = system: HCT-15 colon
HS 578T breast = system: HS 578T breast
K-562 leukemia = system: K-562 leukemia
M14 melanoma = system: M14 melanoma
MDA-MB-231 breast = system: MDA-MB-231 breast
MDA-MB-435 = system: MDA-MB-435
MDA-N = system: MDA-N
NCI-H23 lung = system: NCI-H23 lung
NCI-H460 lung = system: NCI-H460 lung
NCI/ADR-RES ovarian = system: NCI/ADR-RES ovarian
OVCAR-5 ovarian = system: OVCAR-5 ovarian
OVCAR-8 ovarian = system: OVCAR-8 ovarian
PC-3 prostate = system: PC-3 prostate
SF-295 CNS = system: SF-295 CNS
SF-539 CNS = system: SF-539 CNS
SK-MEL-28 melanoma = system: SK-MEL-28 melanoma
SK-OV-3 ovarian = system: SK-OV-3 ovarian
SN12C renal = system: SN12C renal
SNB-19 CNS = system: SNB-19 CNS
SW-620 colon = system: SW-620 colon
UACC-257 melanoma = system: UACC-257 melanoma
UACC-62 melanoma = system: UACC-62 melanoma
UO-31 renal = system: UO-31 renal
A498 renal = system: A498 renal
BT-549 breast = system: BT-549 breast
CAKI-1 renal = system: CAKI-1 renal
CCRF-CEM leukemia = system: CCRF-CEM leukemia
DU-145 prostate = system: DU-145 prostate
EKVX NSCLC = system: EKVX NSCLC
HCC-2998 colon = system: HCC-2998 colon
HL-60(TB) leukemia = system: HL-60(TB) leukemia
HOP-62 NSCLC = system: HOP-62 NSCLC
HOP-92 NSCLC = system: HOP-92 NSCLC
HT29 colon = system: HT29 colon
IGROV1 ovarian = system: IGROV1 ovarian
KM12 colon = system: KM12 colon
LOX IMVI melanoma = system: LOX IMVI melanoma
MALME-3M melanoma = system: MALME-3M melanoma
MCF7 breast = system: MCF7 breast
MOLT-4 leukemia = system: MOLT-4 leukemia
NCI-H226 lung = system: NCI-H226 lung
NCI-H522 lung = system: NCI-H522 lung
OVCAR-3 ovarian = system: OVCAR-3 ovarian
OVCAR-4 ovarian = system: OVCAR-4 ovarian
RPMI-8226 leukemia = system: RPMI-8226 leukemia
RXF 393 renal = system: RXF 393 renal
SF-268 CNS = system: SF-268 CNS
SK-MEL-2 melanoma = system: SK-MEL-2 melanoma
SK-MEL-5 melanoma = system: SK-MEL-5 melanoma
SNB-75 CNS = system: SNB-75 CNS
SR leukemia = system: SR leukemia
T-47D breast = system: T-47D breast
TK-10 renal = system: TK-10 renal
U251 CNS = system: U251 CNS

O=C(CBr)N1CCC2(CC1)SSC1(CCN(C(=O)CBr)CC1)S2
TGI (786-0 renal): 1.81 µM | TGI (A549 NSCLC): 3.95 µM | TGI (ACHN renal): 2.87 µM | TGI (COLO 205 colon): 1.13 µM | TGI (HCT-116 colon): 1.29 µM | TGI (HCT-15 colon): 2.96 µM | TGI (HS 578T breast): 4.29 µM | TGI (K-562 leukemia): > 100 µM | TGI (M14 melanoma): 2.86 µM | TGI (MDA-MB-231 breast): 4.57 µM | TGI (MDA-MB-435): 4.48 µM | TGI (MDA-N): 2810 nM | TGI (NCI-H23 lung): 3.13 µM | TGI (NCI-H460 lung): 3.48 µM | TGI (NCI/ADR-RES ovarian): 4.32 µM | TGI (OVCAR-5 ovarian): 3.03 µM | TGI (OVCAR-8 ovarian): 4.62 µM | TGI (PC-3 prostate): 3.38 µM | TGI (SF-295 CNS): 3.51 µM | TGI (SF-539 CNS): 3.09 µM | TGI (SK-MEL-28 melanoma): 4.55 µM | TGI (SK-OV-3 ovarian): 2.71 µM | TGI (SN12C renal): 3.71 µM | TGI (SNB-19 CNS): 3.48 µM | TGI (SW-620 colon): 1.21 µM | TGI (UACC-257 melanoma): 12.9 µM | TGI (UACC-62 melanoma): 2.96 µM | TGI (UO-31 renal): 2.01 µM

C=C1C(=O)O[C@H]2[C@H]1CC/C(Cn1cc(CNCCc3c[nH]c4ccc(Cl)cc34)nn1)=C\CC[C@@]1(C)O[C@@H]21
GI50 (786-0 renal): 2890 nM | TGI (786-0 renal): 10.2 µM | GI50 (A498 renal): 12.8 µM | TGI (A498 renal): 34.5 µM | GI50 (A549 NSCLC): 34.9 µM | TGI (A549 NSCLC): > 100 µM | GI50 (ACHN renal): 10.2 µM | TGI (ACHN renal): 22.2 µM | GI50 (BT-549 breast): 3.88 µM | TGI (BT-549 breast): 17 µM | GI50 (CAKI-1 renal): 15.2 µM | TGI (CAKI-1 renal): 28.7 µM | GI50 (CCRF-CEM leukemia): 1720 nM | TGI (CCRF-CEM leukemia): 5.08 µM | GI50 (COLO 205 colon): 1960 nM | TGI (COLO 205 colon): 3.75 µM | GI50 (DU-145 prostate): 5.95 µM | TGI (DU-145 prostate): 18.5 µM | GI50 (EKVX NSCLC): 15.5 µM | TGI (EKVX NSCLC): 37.4 µM | GI50 (HCC-2998 colon): 20.3 µM | TGI (HCC-2998 colon): 44.6 µM | GI50 (HCT-116 colon): 3.31 µM | TGI (HCT-116 colon): 10 µM | GI50 (HCT-15 colon): 13.4 µM | TGI (HCT-15 colon): 29.9 µM | GI50 (HL-60(TB) leukemia): 1120 nM | TGI (HL-60(TB) leukemia): 3.46 µM | GI50 (HOP-62 NSCLC): 67.5 µM | TGI (HOP-62 NSCLC): > 100 µM | GI50 (HOP-92 NSCLC): 1340 nM | TGI (HOP-92 NSCLC): 3.05 µM | GI50 (HS 578T breast): 11.1 µM | TGI (HS 578T breast): 53.1 µM | GI50 (HT29 colon): 3.32 µM | TGI (HT29 colon): 11.2 µM | GI50 (IGROV1 ovarian): 2440 nM | TGI (IGROV1 ovarian): 9.59 µM | GI50 (K-562 leukemia): 2910 nM | TGI (K-562 leukemia): 25.2 µM | GI50 (KM12 colon): 17.1 µM | TGI (KM12 colon): 44.1 µM | GI50 (LOX IMVI melanoma): 3.56 µM | TGI (LOX IMVI melanoma): 16 µM | GI50 (M14 melanoma): 13.7 µM | TGI (M14 melanoma): 31.2 µM | GI50 (MALME-3M melanoma): 2400 nM | TGI (MALME-3M melanoma): 6.61 µM | GI50 (MCF7 breast): 2590 nM | TGI (MCF7 breast): 11.5 µM | GI50 (MDA-MB-231 breast): 4.04 µM | TGI (MDA-MB-231 breast): 16.2 µM | GI50 (MDA-MB-435): 6.09 µM | TGI (MDA-MB-435): 21 µM | GI50 (MOLT-4 leukemia): 2540 nM | TGI (MOLT-4 leukemia): 6.56 µM | GI50 (NCI-H226 lung): 31.3 µM | TGI (NCI-H226 lung): > 100 µM | GI50 (NCI-H23 lung): 17 µM | TGI (NCI-H23 lung): 45.5 µM | GI50 (NCI-H460 lung): 49.1 µM | TGI (NCI-H460 lung): > 100 µM | GI50 (NCI-H522 lung): 1580 nM | TGI (NCI-H522 lung): 3.12 µM | GI50 (NCI/ADR-RES ovarian): > 100 µM | TGI (NCI/ADR-RES ovarian): > 100 µM | GI50 (OVCAR-3 ovarian): 2440 nM | TGI (OVCAR-3 ovarian): 6.5 µM | GI50 (OVCAR-4 ovarian): 5.23 µM | TGI (OVCAR-4 ovarian): 19.7 µM | GI50 (OVCAR-5 ovarian): 11.5 µM | TGI (OVCAR-5 ovarian): 26.7 µM | GI50 (OVCAR-8 ovarian): 11.8 µM | TGI (OVCAR-8 ovarian): 29.1 µM | GI50 (PC-3 prostate): 8.96 µM | TGI (PC-3 prostate): 27 µM | GI50 (RPMI-8226 leukemia): 2360 nM | TGI (RPMI-8226 leukemia): 5.55 µM | GI50 (RXF 393 renal): 2660 nM | TGI (RXF 393 renal): 9.69 µM | GI50 (SF-268 CNS): 12.5 µM | TGI (SF-268 CNS): 33.6 µM | GI50 (SF-295 CNS): 30.9 µM | TGI (SF-295 CNS): > 100 µM | GI50 (SF-539 CNS): 4.23 µM | TGI (SF-539 CNS): 14.6 µM | GI50 (SK-MEL-2 melanoma): 10.3 µM | TGI (SK-MEL-2 melanoma): 26.1 µM | GI50 (SK-MEL-28 melanoma): 10.7 µM | TGI (SK-MEL-28 melanoma): 25.2 µM | GI50 (SK-MEL-5 melanoma): 17 µM | TGI (SK-MEL-5 melanoma): 34.9 µM | GI50 (SK-OV-3 ovarian): 35 µM | TGI (SK-OV-3 ovarian): > 100 µM | GI50 (SN12C renal): 2540 nM | TGI (SN12C renal): 8.24 µM | GI50 (SNB-19 CNS): 8.69 µM | TGI (SNB-19 CNS): 32.4 µM | GI50 (SNB-75 CNS): 4.88 µM | TGI (SNB-75 CNS): 17.9 µM | GI50 (SR leukemia): 3.01 µM | TGI (SR leukemia): 9.66 µM | GI50 (SW-620 colon): 1820 nM | TGI (SW-620 colon): 3.88 µM | GI50 (T-47D breast): 3.24 µM | TGI (T-47D breast): 13.8 µM | GI50 (TK-10 renal): 2290 nM | TGI (TK-10 renal): 7 µM | GI50 (U251 CNS): 7.59 µM | TGI (U251 CNS): 20.9 µM | GI50 (UACC-257 melanoma): 10.7 µM | TGI (UACC-257 melanoma): 27 µM | GI50 (UACC-62 melanoma): 4.65 µM | TGI (UACC-62 melanoma): 16.9 µM | GI50 (UO-31 renal): 6.23 µM | TGI (UO-31 renal): 19.4 µM

CCn1nc(C)c2c1C(=O)NC(C)C(=O)N2 (stereo not given)
TGI (A498 renal): > 100 µM | TGI (A549 NSCLC): > 100 µM | TGI (ACHN renal): > 100 µM | TGI (BT-549 breast): > 100 µM | TGI (CAKI-1 renal): > 100 µM | TGI (COLO 205 colon): > 100 µM | TGI (DU-145 prostate): > 100 µM | TGI (EKVX NSCLC): > 100 µM | TGI (HCT-116 colon): > 100 µM | TGI (HCT-15 colon): 28.3 µM | TGI (HOP-92 NSCLC): > 100 µM | TGI (HS 578T breast): > 100 µM | TGI (HT29 colon): > 100 µM | TGI (IGROV1 ovarian): > 100 µM | TGI (M14 melanoma): > 100 µM | TGI (MDA-MB-435): > 100 µM | TGI (MDA-N): > 100000 nM | TGI (NCI-H23 lung): > 100 µM | TGI (NCI-H460 lung): > 100 µM | TGI (NCI-H522 lung): > 100 µM | TGI (OVCAR-3 ovarian): > 100 µM | TGI (OVCAR-4 ovarian): > 100 µM | TGI (OVCAR-5 ovarian): > 100 µM | TGI (OVCAR-8 ovarian): > 100 µM | TGI (PC-3 prostate): > 100 µM | TGI (RXF 393 renal): > 100 µM | TGI (SF-268 CNS): > 100 µM | TGI (SF-295 CNS): > 100 µM | TGI (SF-539 CNS): > 100 µM | TGI (SK-MEL-28 melanoma): > 100 µM | TGI (SK-MEL-5 melanoma): > 100 µM | TGI (SK-OV-3 ovarian): > 100 µM | TGI (SN12C renal): > 100 µM | TGI (SNB-19 CNS): > 100 µM | TGI (SNB-75 CNS): > 100 µM | TGI (SW-620 colon): > 100 µM | TGI (TK-10 renal): > 100 µM | TGI (U251 CNS): > 100 µM | TGI (UACC-257 melanoma): > 100 µM | TGI (UACC-62 melanoma): > 100 µM | TGI (UO-31 renal): > 100 µM
